In the supplement of paper PMC10307832:

What was measured:
Experiment in all cases: relative viability (nuclei count vs DMSO), 5 days (fraction); higher = more cells survive
4EGI-1 + Alpelisib = compound: O=C(O)C(Cc1ccccc1[N+](=O)[O-])=NNc1nc(-c2ccc(Cl)c(Cl)c2)cs1 (mixture of isomers) [4EGI-1] + Cc1nc(NC(=O)N2CCC[C@H]2C(N)=O)sc1-c1ccnc(C(C)(C)C(F)(F)F)c1 [Alpelisib] (partner 2 µM)
Outline: (§1)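 Medians of duplicate plates are given as relative viability. That measure is the nuclei count in treated wells divided by the count in vehicle wells. Counts were taken on 4× images of lung cancer cell lines in 1536-well plates, 5 days after pin-tool dosing the day after seeding with one drug alone or a fixed anchor-drug dose plus five library-drug doses (not always all listed) in √10 steps.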

4EGI-1 + Phenformin = compound: O=C(O)C(Cc1ccccc1[N+](=O)[O-])=NNc1nc(-c2ccc(Cl)c(Cl)c2)cs1 (mixture of isomers) [4EGI-1] + N=C(N)NC(=N)NCCc1ccccc1 [Phenformin] (partner 250 µM)
Outline: as §1

4EGI-1 + Tozasertib = compound: O=C(O)C(Cc1ccccc1[N+](=O)[O-])=NNc1nc(-c2ccc(Cl)c(Cl)c2)cs1 (mixture of isomers) [4EGI-1] + Cc1cc(Nc2cc(N3CCN(C)CC3)nc(Sc3ccc(NC(=O)C4CC4)cc3)n2)n[nH]1 [Tozasertib] (partner 0.1 µM)
Outline: as §1

4EGI-1 + Palbociclib = compound: O=C(O)C(Cc1ccccc1[N+](=O)[O-])=NNc1nc(-c2ccc(Cl)c(Cl)c2)cs1 (mixture of isomers) [4EGI-1] + CC(=O)c1c(C)c2cnc(Nc3ccc(N4CCNCC4)cn3)nc2n(C2CCCC2)c1=O [Palbociclib] (partner 0.5 µM)
Outline: as §1

Row | Cell Line | relative viability (4EGI-1 + Alpelisib; first compound 0.5 µM) | relative viability (4EGI-1 + Alpelisib; first compound 1.581 µM) | relative viability (4EGI-1 + Alpelisib; first compound 5 µM) | relative viability (4EGI-1 + Alpelisib; first compound 15.81 µM) | relative viability (4EGI-1 + Alpelisib; first compound 50 µM) | relative viability (4EGI-1 + Phenformin; first compound 0.5 µM) | relative viability (4EGI-1 + Phenformin; first compound 1.581 µM) | relative viability (4EGI-1 + Phenformin; first compound 5 µM) | relative viability (4EGI-1 + Phenformin; first compound 15.81 µM) | relative viability (4EGI-1 + Phenformin; first compound 50 µM) | relative viability (4EGI-1 + Tozasertib; first compound 0.5 µM) | relative viability (4EGI-1 + Tozasertib; first compound 1.581 µM) | relative viability (4EGI-1 + Tozasertib; first compound 5 µM) | relative viability (4EGI-1 + Tozasertib; first compound 15.81 µM) | relative viability (4EGI-1 + Tozasertib; first compound 50 µM) | relative viability (4EGI-1 + Palbociclib; first compound 0.5 µM) | relative viability (4EGI-1 + Palbociclib; first compound 1.581 µM) | relative viability (4EGI-1 + Palbociclib; first compound 5 µM) | relative viability (4EGI-1 + Palbociclib; first compound 15.81 µM) | relative viability (4EGI-1 + Palbociclib; first compound 50 µM)
1 | NCI-H1703 | 0.414 | 0.305 | 0.387 | 0.338 | 0.381 | – | – | – | – | – | – | – | – | – | – | – | – | – | – | –
2 | 201T | 1.03 | 0.997 | 1.09 | 1.03 | 0.97 | 0.456 | 0.475 | 0.427 | 0.45 | 0.428 | 1.01 | 0.91 | 0.905 | 0.771 | 0.475 | 0.365 | 0.358 | 0.364 | 0.316 | 0.31
3 | LK-2 | 1.22 | – | 1.12 | 1.21 | 0.897 | 0.464 | – | 0.639 | 0.437 | 0.0912 | 0.193 | – | 0.199 | 0.151 | 0.151 | 0.692 | – | 0.639 | 0.803 | 0.539
4 | HCC-78 | 0.439 | 0.315 | 0.319 | 0.32 | 0.218 | 0.812 | – | 0.741 | 0.668 | 0.658 | 0.538 | – | 0.336 | 1.56 | 0.289 | 0.471 | 0.462 | 0.434 | 0.432 | 0.488
5 | EMC-BAC-2 | 0.733 | 0.628 | 0.72 | 0.485 | 0.656 | 0.664 | 0.524 | 0.612 | 0.608 | 0.385 | 0.324 | 0.262 | 0.329 | 0.312 | 0.26 | 0.561 | – | 0.504 | 0.29 | 0.157
6 | NCI-H2023 | 0.578 | – | 0.582 | 0.41 | 0.264 | 0.503 | – | 0.425 | 0.281 | 0.117 | 0.377 | – | 0.38 | 0.259 | 0.142 | 0.358 | – | 0.483 | 0.245 | 0.0543
7 | SK-MES-1 | 0.968 | 0.735 | 0.911 | 0.773 | 0.827 | 0.687 | 0.614 | 0.725 | 0.618 | 0.381 | 0.894 | 0.596 | 0.925 | 0.699 | 0.234 | 0.354 | 0.27 | 0.336 | 0.288 | 0.18
8 | NCI-H1755 | 0.956 | 1.03 | 0.88 | 0.851 | 0.445 | 0.699 | 0.636 | 0.646 | 0.625 | 0.397 | 0.625 | 0.569 | 0.525 | 0.486 | 0.355 | 0.439 | 0.424 | 0.425 | 0.435 | 0.406
9 | NCI-H2405 | 1.16 | 0.664 | 0.95 | 0.918 | 0.526 | 0.419 | 0.338 | 0.421 | 0.409 | 0.409 | 0.723 | 0.645 | 0.815 | 0.789 | 0.839 | 0.606 | – | 0.508 | 0.55 | 0.329
10 | IA-LM | 0.916 | 0.647 | 0.586 | 0.149 | 0.0833 | – | – | – | – | – | – | – | – | – | – | – | – | – | – | –
11 | SK-LU-1 | 1.23 | 1.01 | 1.26 | 0.806 | 0.232 | 0.653 | 0.546 | 0.681 | 0.632 | 0.264 | 0.374 | 0.335 | 0.381 | 0.259 | 0.227 | 0.439 | 0.44 | 0.414 | 0.386 | 0.289
12 | NCI-H1563 | 0.998 | 0.884 | 0.983 | 0.906 | 0.697 | 0.624 | 0.613 | 0.602 | 0.69 | 0.55 | – | – | – | – | – | – | – | – | – | –
13 | PC-14 | 1.05 | – | 0.906 | – | 0.941 | 0.614 | – | 0.792 | 0.188 | 0.232 | 0.584 | – | 0.57 | – | 0.28 | 0.559 | – | 0.659 | 0.188 | 0.0675
14 | NCI-H596 | 0.576 | 0.524 | 0.508 | 0.574 | 0.461 | 0.859 | 0.732 | 1.01 | 0.961 | 0.705 | 1.01 | 0.769 | 0.987 | 0.949 | 0.783 | – | – | – | – | –
15 | SW 900 | – | – | – | – | – | 0.812 | – | 0.807 | 0.527 | 0.322 | 0.688 | – | 0.551 | 0.459 | 0.291 | 0.552 | 0.573 | 0.69 | 0.395 | 0.234
16 | NCI-H522 | – | – | – | – | – | 0.641 | 0.548 | 0.676 | 0.626 | 0.551 | 0.558 | 0.491 | 0.595 | 0.558 | 0.457 | 1.07 | 0.822 | 1.2 | 1.08 | 0.953
17 | EBC-1 | 0.947 | 0.876 | 1.08 | 0.477 | 0.273 | – | – | – | – | – | – | – | – | – | – | – | – | – | – | –
18 | ChaGo-K-1 | – | – | – | – | – | 0.447 | 0.439 | 0.543 | 0.49 | 0.351 | 0.209 | 0.208 | 0.212 | 0.209 | 0.208 | 0.95 | 0.936 | 0.973 | 1.01 | 0.556
19 | NCI-H1623 | – | – | – | – | – | 0.586 | 0.5 | 0.607 | 0.45 | 0.53 | 0.481 | 0.421 | 0.535 | 0.36 | 0.33 | – | – | – | – | –
20 | NCI-H1650 | – | – | – | – | – | 0.456 | – | 0.401 | 0.284 | 0.206 | 0.474 | – | 0.413 | 0.327 | 0.267 | 0.417 | – | 0.331 | 0.255 | 0.141
21 | NCI-H1648 | – | – | – | – | – | – | – | – | – | – | 0.604 | 0.623 | 0.532 | 0.466 | 0.314 | 0.271 | 0.232 | 0.314 | 0.275 | 0.253
22 | NCI-H2342 | – | – | – | – | – | 0.582 | 0.588 | 0.716 | 0.641 | 0.522 | 0.549 | 0.598 | 0.655 | 0.544 | 0.511 | 0.506 | 0.547 | 0.582 | 0.59 | 0.539
23 | Calu-6 | 1.08 | 0.493 | 1.21 | 0.933 | 0.375 | – | – | – | – | – | – | – | – | – | – | – | – | – | – | –
